Assay results published in PubChem BioAssay (NCI).
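Interpolation was linear, between the two tested concentrations surrounding the appropriate level; five concentrations were tested over 48 hours in 96-well plates. Here, GI50 denotes the concentration required for 50% inhibition of growth. TGI: concentration producing complete growth inhibition.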

Columns and labels:
Test in all cases: NCI tumour cell line growth inhibition, 48 h
SW-620 colon = tested on: SW-620 colon
PC-3 prostate = tested on: PC-3 prostate
MALME-3M melanoma = tested on: MALME-3M melanoma
A498 renal = tested on: A498 renal
SF-539 CNS = tested on: SF-539 CNS
SNB-75 CNS = tested on: SNB-75 CNS
HL-60(TB) leukemia = tested on: HL-60(TB) leukemia
LOX IMVI melanoma = tested on: LOX IMVI melanoma
OVCAR-5 ovarian = tested on: OVCAR-5 ovarian
UO-31 renal = tested on: UO-31 renal
CAKI-1 renal = tested on: CAKI-1 renal
OVCAR-4 ovarian = tested on: OVCAR-4 ovarian
CCRF-CEM leukemia = tested on: CCRF-CEM leukemia
BT-549 breast = tested on: BT-549 breast
KM12 colon = tested on: KM12 colon
DU-145 prostate = tested on: DU-145 prostate
786-0 renal = tested on: 786-0 renal
NCI/ADR-RES ovarian = tested on: NCI/ADR-RES ovarian
RXF 393 renal = tested on: RXF 393 renal
SK-MEL-5 melanoma = tested on: SK-MEL-5 melanoma
ACHN renal = tested on: ACHN renal
NCI-H226 lung = tested on: NCI-H226 lung
MOLT-4 leukemia = tested on: MOLT-4 leukemia
MDA-MB-231 breast = tested on: MDA-MB-231 breast
SR leukemia = tested on: SR leukemia
OVCAR-8 ovarian = tested on: OVCAR-8 ovarian
OVCAR-3 ovarian = tested on: OVCAR-3 ovarian
UACC-62 melanoma = tested on: UACC-62 melanoma
TK-10 renal = tested on: TK-10 renal
NCI-H23 lung = tested on: NCI-H23 lung
RPMI-8226 leukemia = tested on: RPMI-8226 leukemia
SK-OV-3 ovarian = tested on: SK-OV-3 ovarian
MDA-MB-435 = tested on: MDA-MB-435
HS 578T breast = tested on: HS 578T breast
M14 melanoma = tested on: M14 melanoma
SF-268 CNS = tested on: SF-268 CNS
SK-MEL-28 melanoma = tested on: SK-MEL-28 melanoma
HCC-2998 colon = tested on: HCC-2998 colon
HCT-15 colon = tested on: HCT-15 colon
SNB-19 CNS = tested on: SNB-19 CNS
SN12C renal = tested on: SN12C renal
HT29 colon = tested on: HT29 colon
MCF7 breast = tested on: MCF7 breast
EKVX NSCLC = tested on: EKVX NSCLC
UACC-257 melanoma = tested on: UACC-257 melanoma
A549 NSCLC = tested on: A549 NSCLC
NCI-H522 lung = tested on: NCI-H522 lung
K-562 leukemia = tested on: K-562 leukemia
SK-MEL-2 melanoma = tested on: SK-MEL-2 melanoma
COLO 205 colon = tested on: COLO 205 colon
NCI-H460 lung = tested on: NCI-H460 lung
HCT-116 colon = tested on: HCT-116 colon
HOP-92 NSCLC = tested on: HOP-92 NSCLC
U251 CNS = tested on: U251 CNS
SF-295 CNS = tested on: SF-295 CNS
IGROV1 ovarian = tested on: IGROV1 ovarian
HOP-62 NSCLC = tested on: HOP-62 NSCLC

## CCCC[N+](CCCC)=c1ccc2nc3c(C)cc(N(CC)CC)cc3sc-2c1
SW-620 colon
  GI50: 0.245 µM
  TGI: 1.58 µM
PC-3 prostate
  GI50: 0.0583 µM
  TGI: 1.55 µM
MALME-3M melanoma
  GI50: 0.165 µM
  TGI: 0.429 µM
A498 renal
  GI50: 0.236 µM
  TGI: 4.43 µM
SF-539 CNS
  GI50: 0.192 µM
  TGI: 1.14 µM
SNB-75 CNS
  GI50: 0.229 µM
  TGI: 1.1 µM
HL-60(TB) leukemia
  GI50: 0.0995 µM
  TGI: 0.773 µM
LOX IMVI melanoma
  GI50: 0.146 µM
  TGI: 1.13 µM
OVCAR-5 ovarian
  GI50: 0.349 µM
  TGI: 1.61 µM
UO-31 renal
  GI50: 0.134 µM
  TGI: 0.804 µM
CAKI-1 renal
  GI50: 0.183 µM
  TGI: 1.1 µM
OVCAR-4 ovarian
  GI50: 0.0517 µM
  TGI: 1.11 µM
CCRF-CEM leukemia
  GI50: 0.0923 µM
  TGI: 3.42 µM
BT-549 breast
  GI50: 0.225 µM
  TGI: 1.73 µM
KM12 colon
  GI50: 0.113 µM
  TGI: 1.34 µM
DU-145 prostate
  GI50: 0.307 µM
  TGI: 1.47 µM
786-0 renal
  GI50: 0.302 µM
  TGI: 1.44 µM
NCI/ADR-RES ovarian
  GI50: 0.327 µM
  TGI: 1.84 µM
RXF 393 renal
  GI50: 0.322 µM
  TGI: 1.41 µM
SK-MEL-5 melanoma
  GI50: 0.0993 µM
  TGI: 0.403 µM
ACHN renal
  GI50: 0.187 µM
  TGI: 1.06 µM
NCI-H226 lung
  GI50: 0.265 µM
  TGI: 1.72 µM
MOLT-4 leukemia
  GI50: 0.0958 µM
  TGI: 3.14 µM
MDA-MB-231 breast
  GI50: 0.247 µM
  TGI: 0.849 µM
SR leukemia
  GI50: 0.0524 µM
  TGI: 1.97 µM
OVCAR-8 ovarian
  GI50: 0.0703 µM
  TGI: 2.16 µM
OVCAR-3 ovarian
  GI50: 0.12 µM
  TGI: 1.15 µM
UACC-62 melanoma
  GI50: 0.29 µM
  TGI: 1.77 µM
TK-10 renal
  GI50: 0.102 µM
  TGI: 1.58 µM
NCI-H23 lung
  GI50: 0.0601 µM
  TGI: 1.04 µM
RPMI-8226 leukemia
  GI50: 0.0571 µM
  TGI: 1.58 µM
SK-OV-3 ovarian
  GI50: 0.28 µM
  TGI: 1.05 µM
MDA-MB-435
  GI50: 0.205 µM
  TGI: 1.2 µM
HS 578T breast
  GI50: 0.341 µM
  TGI: 2.29 µM
M14 melanoma
  GI50: 0.338 µM
  TGI: 1.64 µM
SF-268 CNS
  GI50: 0.339 µM
  TGI: 1.78 µM
SK-MEL-28 melanoma
  GI50: 0.613 µM
  TGI: 2.03 µM

## c1cc(-c2ccc(-c3ccc(C4=NC5CCCCC5N4)cc3)o2)ccc1C1=NC2CCCCC2N1 (stereo not given)
SW-620 colon
  TGI: > 100 µM
PC-3 prostate
  TGI: 2.78 µM
A498 renal
  TGI: 9.04 µM
HL-60(TB) leukemia
  TGI: 4.86 µM
OVCAR-5 ovarian
  TGI: 4.55 µM
UO-31 renal
  TGI: 6.89 µM
CAKI-1 renal
  TGI: > 100 µM
HCC-2998 colon
  TGI: 2.56 µM
CCRF-CEM leukemia
  TGI: > 100 µM
DU-145 prostate
  TGI: 3.33 µM
HCT-15 colon
  TGI: 79.4 µM
786-0 renal
  TGI: 2.81 µM
SNB-19 CNS
  TGI: 2.8 µM
SN12C renal
  TGI: 3.03 µM
HT29 colon
  TGI: 2.89 µM
NCI/ADR-RES ovarian
  TGI: > 100 µM
ACHN renal
  TGI: 5.7 µM
MCF7 breast
  TGI: 2.53 µM
EKVX NSCLC
  TGI: 3.42 µM
UACC-62 melanoma
  TGI: 3.14 µM
UACC-257 melanoma
  TGI: 3.28 µM
TK-10 renal
  TGI: 16.4 µM
MDA-MB-435
  TGI: 4.84 µM
A549 NSCLC
  TGI: 3.14 µM
M14 melanoma
  TGI: 3.01 µM

## COc1ccc2nc3cc(Cl)ccc3c(N3CCN(c4ccnc(N5CCOCC5)n4)CC3)c2c1
NCI-H522 lung
  GI50: 1.81 µM
  TGI: 5.09 µM
SW-620 colon
  GI50: 4.71 µM
  TGI: > 100 µM
PC-3 prostate
  GI50: 98.1 µM
  TGI: > 100 µM
K-562 leukemia
  GI50: 2.91 µM
  TGI: > 100 µM
SK-MEL-2 melanoma
  GI50: 53.3 µM
  TGI: > 100 µM
MALME-3M melanoma
  GI50: > 100 µM
  TGI: > 100 µM
COLO 205 colon
  GI50: 6.66 µM
  TGI: > 100 µM
NCI-H460 lung
  GI50: > 100 µM
  TGI: > 100 µM
A498 renal
  GI50: 27.8 µM
  TGI: > 100 µM
SF-539 CNS
  GI50: > 100 µM
  TGI: > 100 µM
SNB-75 CNS
  GI50: 10.6 µM
  TGI: 65.3 µM
HL-60(TB) leukemia
  GI50: 8.12 µM
  TGI: > 100 µM
OVCAR-5 ovarian
  GI50: 7.58 µM
  TGI: > 100 µM
UO-31 renal
  GI50: > 100 µM
  TGI: > 100 µM
HCT-116 colon
  GI50: 6.29 µM
  TGI: > 100 µM
CAKI-1 renal
  GI50: > 100 µM
  TGI: > 100 µM
HCC-2998 colon
  GI50: 3.86 µM
  TGI: 42.4 µM
CCRF-CEM leukemia
  GI50: 2.49 µM
  TGI: > 100 µM
BT-549 breast
  GI50: > 100 µM
  TGI: > 100 µM
KM12 colon
  GI50: 19.3 µM
  TGI: > 100 µM
DU-145 prostate
  GI50: 17.9 µM
  TGI: > 100 µM
HCT-15 colon
  GI50: 3.28 µM
  TGI: > 100 µM
HOP-92 NSCLC
  GI50: 11.5 µM
  TGI: > 100 µM
786-0 renal
  GI50: 4.23 µM
  TGI: 34.3 µM
SNB-19 CNS
  GI50: > 100 µM
  TGI: > 100 µM
SN12C renal
  GI50: > 100 µM
  TGI: > 100 µM
HT29 colon
  GI50: 2.9 µM
  TGI: 16.7 µM
NCI/ADR-RES ovarian
  GI50: 50.8 µM
  TGI: > 100 µM
RXF 393 renal
  GI50: 2.68 µM
  TGI: 16.1 µM
SK-MEL-5 melanoma
  GI50: > 100 µM
  TGI: > 100 µM
ACHN renal
  GI50: 9.64 µM
  TGI: > 100 µM
NCI-H226 lung
  GI50: > 100 µM
  TGI: > 100 µM
MOLT-4 leukemia
  GI50: 6.24 µM
  TGI: > 100 µM
U251 CNS
  GI50: > 100 µM
  TGI: > 100 µM
SF-295 CNS
  GI50: > 100 µM
  TGI: > 100 µM
IGROV1 ovarian
  GI50: > 100 µM
  TGI: > 100 µM
HOP-62 NSCLC
  GI50: 63.1 µM
  TGI: > 100 µM
SR leukemia
  GI50: 3.29 µM
  TGI: > 100 µM
OVCAR-8 ovarian
  GI50: 43.5 µM
  TGI: > 100 µM
MCF7 breast
  GI50: 1.89 µM
  TGI: 4.9 µM
OVCAR-3 ovarian
  GI50: 4.14 µM
  TGI: 57.3 µM
UACC-62 melanoma
  GI50: > 100 µM
  TGI: > 100 µM
UACC-257 melanoma
  GI50: > 100 µM
  TGI: > 100 µM
TK-10 renal
  GI50: 42.5 µM
  TGI: > 100 µM
NCI-H23 lung
  GI50: 8.61 µM
  TGI: > 100 µM
RPMI-8226 leukemia
  GI50: 2.92 µM
  TGI: 10.6 µM
SK-OV-3 ovarian
  GI50: > 100 µM
  TGI: > 100 µM
MDA-MB-435
  GI50: 7.15 µM
  TGI: > 100 µM
A549 NSCLC
  GI50: > 100 µM
  TGI: > 100 µM
HS 578T breast
  GI50: 12.3 µM
  TGI: > 100 µM
M14 melanoma
  GI50: > 100 µM
  TGI: > 100 µM
SF-268 CNS
  GI50: 9.74 µM
  TGI: > 100 µM
SK-MEL-28 melanoma
  GI50: 58.4 µM
  TGI: > 100 µM
